One data set concerns HIV-13B. The experiment in a line: Antiviral activity: inhibition of the cytopathic effect of HIV in MT4 cells (procedure of Pauwels et al.). Type of data set: cell-based. The note with it: Human immunodeficiency virus 1, MT4. The text has this: (§1) The anti-HIV activity of the compounds of the invention can be determined in MT4 cells according to the procedure of Pauwels et. al. (J. Virol. Methods 1988, 20, 309).

The target in the next data set is HIV-1 protease (Human immunodeficiency virus type 1 group M subtype B, UniProt P04585). As to the kind of experiment: Fluorogenic assay for screening inhibitors of HIV protease. Format: biochemical. Particulars: read-out: Percent Inhibition. Here is the method:
Fluorogenic Assay for Screening Inhibitors of HIV Protease
The inhibitory potency of the compounds of the invention can be determined by the following method.
A compound of the invention is dissolved in DMSO and a small aliquot further diluted with DMSO to 100 times the final concentration desired for testing. The reaction is carried out in a 6 X 50 mm tube in a total volume of 300 microliters. The final concentrations of the components in the reaction buffer are: 125 mM sodium acetate, 1 M sodium chloride, 5 mM dithiothreitol, 0.5 mg/ml bovine serum albumin, 1.3 µM fluorogenic substrate, 2% (v/v) dimethylsulfoxide, pH 4.5. After addition of inhibitor, the reaction mixture is placed in the fluorometer cell holder and incubated at 30°C for several minutes. The reaction is initiated by the addition of a small aliquot of cold HIV protease. The fluorescence intensity (excitation 340 nm, emmision 490 nM) is recorded as a function of time. The reaction rate is determined for the first six to eight minutes. The observed rate is directly proportional to the moles of substrate cleaved per unit time. The percent inhibition is 100 X (1 - (rate in presence of inhibitor)/(rate in absence of inhibitor)).

A short description of data set [1]: Cell viability (LC50) in MT4 cells in the antiviral test. Format: cell-based. The note with it: human, concentration at which 50% of the cells remain viable.
Excerpt: as §1

Where [2] appears, read: Inhibitor Concentration 0.5 nanomolar.

Like-named read-outs stand apart in the source and are kept apart here.

In turn, `CC(C)[C@H](NC(=O)N(C)Cc1ccccn1)C(=O)N[C@@H](Cc1ccccc1)[C@@H](O)C[C@H](Cc1ccccc1)NC(=O)OCc1cccnc1` [Example 37C, (2S,3S,5S)-2-(N-(N-((N-Methyl-N-((2-pyridinyl)-methyl)amino)carbonyl)valinyl)amino)-5-(N-((3-pyridinyl)methoxycarbonyl)amino)-1,6-diphenyl-3-hydroxyhexane] gave an IC50 in the data set with HIV-13B of 840 to 1440 nM. For the same molecule, the inhibition at 0.001 µM at HIV-1 protease came to 61%.

`CC(C)[C@H](NC(=O)N(C)Cc1ccccn1)C(=O)N[C@@H](Cc1ccccc1)C[C@H](O)[C@H](Cc1ccccc1)NC(=O)OCc1cccnc1` [Example 38, (2S,3S,5S)-5-(N-(N-((N-Methyl-N-((2-pyridinyl)methyl)amino)carbonyl)valinyl)amino)-2-(N-((3-pyridinyl)methoxycarbonyl)amino)-1,6-diphenyl-3-hydroxyhexane] yielded an IC50 in the data set with HIV-13B of 550 to 610 nM.

As for `CC(C)[C@H](NC(=O)OCc1ccccn1)C(=O)N[C@@H](Cc1ccccc1)[C@@H](O)C[C@H](Cc1ccccc1)NC(=O)OCc1cccnc1` [Example 39, (2S,3S,5S)-2-(N-(N-((2-Pyridinyl)methoxycarbonyl)valinyl)amino)-5-(N-((3-pyridinyl)methoxycarbonyl)amino)-1,6-diphenyl-3-hydroxyhexane], in the data set on HIV-13B, the IC50 fell in the range of 130 to 250 nM.

As for `CC(C)[C@H](NC(=O)OCc1ccccn1)C(=O)N[C@@H](Cc1ccccc1)C[C@H](O)[C@H](Cc1ccccc1)NC(=O)OCc1cccnc1` [Example 40, (2S,3S,5S)-5-(N-(N-((2-Pyridinyl)methoxycarbonyl)valinyl)amino)-2-(N-((3-pyridinyl)methoxycarbonyl)amino)-1,6-diphenyl-3-hydroxyhexane], the 50% cytotoxic concentration (CC50) in data set [1] is 64000 nM. In the data set with HIV-13B, this molecule yielded an IC50 of 230 to 550 nM. The inhibition at 0.0005 µM on HIV-1 protease was 61%.

`CC[C@H](C)[C@H](NC(=O)N(C)Cc1ccccn1)C(=O)N[C@@H](Cc1ccccc1)C[C@H](O)[C@H](Cc1ccccc1)NC(=O)OCc1cccnc1` [Example 171]: in the data set with HIV-13B, the concentration for half-maximal inhibition (IC50) fell in the range of 380 to 550 nM. On HIV-1 protease (setting [2]), the inhibition at 0.0005 µM came out at 62%.

The molecule `O=C(N[C@@H](Cc1ccccc1)C[C@H](O)[C@H](Cc1ccccc1)NC(=O)OCc1cccnc1)OCc1cccnc1` [Example 174] returned an IC50 with HIV-13B of 140 to 230 nM. In addition, on HIV-1 protease (setting [2]), the inhibition at 0.0005 µM worked out at 51%.

For the molecule `Cc1cccc(COC(=O)N[C@H](C(=O)N[C@@H](Cc2ccccc2)C[C@H](O)[C@H](Cc2ccccc2)NC(=O)OCc2cccnc2)C(C)C)n1` [Example 290, (2S,3S,5S)-2-(N-[(pyridin-3-yl)methoxycarbonyl]amino)-5-(N-[(6-methylpyridin-2-yl)methoxycarbonyl-valyl]amino)-1,6-diphenyl-3-hydroxyhexane], in the data set with HIV-13B, the IC50 is 26 to 75 nM.

`Cc1cccc(CN(C)C(=O)N[C@H](C(=O)N[C@@H](Cc2ccccc2)[C@@H](O)C[C@H](Cc2ccccc2)NC(=O)OCc2cccnc2)C(C)C)n1` [Example 297, (2S,3S-5S)-2-(N-(N-((N-Methyl-N-((6-methyl-2-pyridinyl)methyl)amino)carbonyl)valinyl)amino)-5-(N-((3-pyridinyl)-methoxycarbonyl)amino)-1,6-diphenyl-3-hydroxyhexane] had a concentration for half-maximal inhibition (IC50) with HIV-13B of 310 to 350 nM.

On to `Cc1cccc(CN(C)C(=O)N[C@H](C(=O)N[C@@H](Cc2ccccc2)C[C@H](O)[C@H](Cc2ccccc2)NC(=O)OCc2cccnc2)C(C)C)n1` [Example 298], for which the IC50 in the data set with HIV-13B lay within 220 to 290 nM.

For the molecule `Cc1cccc(COC(=O)N[C@H](C(=O)N[C@@H](Cc2ccccc2)[C@@H](O)C(F)(F)[C@H](Cc2ccccc2)NC(=O)[C@@H](NC(=O)OCc2cccc(C)n2)C(C)C)C(C)C)n1` [Example 305], the half-maximal inhibitory concentration (IC50) in the data set with HIV-13B is 5 to 17 nM. Also, the inhibition at 0.0005 µM at HIV-1 protease (setting [2]) was 91%.

`Cc1cccc(COC(=O)N[C@H](C(=O)N[C@@H](Cc2ccccc2)C(=O)C(F)(F)[C@H](Cc2ccccc2)NC(=O)[C@@H](NC(=O)OCc2cccc(C)n2)C(C)C)C(C)C)n1` [Example 306] had an IC50 in the data set with HIV-13B of 7 to 19 nM. Besides, the inhibition at 0.0005 µM on HIV-1 protease (setting [2]) came out at 88%.

Molecule `Cc1cnc(COC(=O)N[C@H](C(=O)N[C@@H](Cc2ccccc2)[C@@H](O)C[C@H](Cc2ccccc2)NC(=O)OCc2cccnc2)C(C)C)cn1` [Example 307] returned an IC50 in the data set with HIV-13B of 160 to 260 nM.

Consider `Cc1cnc(COC(=O)N[C@H](C(=O)N[C@@H](Cc2ccccc2)C[C@H](O)[C@H](Cc2ccccc2)NC(=O)OCc2cccnc2)C(C)C)cn1` [Example 308], for which the half-maximal inhibitory concentration (IC50) in the data set on HIV-13B was in the range of 77 to 124 nM.

In the data set on HIV-13B, `COc1ccc(COC(=O)N[C@H](C(=O)N[C@@H](Cc2ccccc2)C[C@H](O)[C@H](Cc2ccccc2)NC(=O)OCc2cccnc2)C(C)C)cn1` [Example 310] returned an IC50 of 13 to 25 nM.

In turn, `COc1ccc(CN(C)C(=O)N[C@H](C(=O)N[C@@H](Cc2ccccc2)[C@@H](O)C[C@H](Cc2ccccc2)NC(=O)OCc2cccnc2)C(C)C)cn1` [Example 311, (2S,3S,5S)-2-(N-(N-((N-Methyl-N-((6-methoxy-3-pyridinyl)methyl)amino)carbonyl)valinyl)amino)-5-(N-((3-pyridinyl)methoxycarbonyl)amino)-1,6-diphenyl-3-hydroxyhexane] displayed an IC50 in the data set on HIV-13B of 58 to 67 nM.

In the data set on HIV-13B, `COc1ccc(CN(C)C(=O)N[C@H](C(=O)N[C@@H](Cc2ccccc2)C[C@H](O)[C@H](Cc2ccccc2)NC(=O)OCc2cccnc2)C(C)C)cn1` [Example 312] had an IC50 of 58 to 77 nM.

`Cc1cncc(CN(C)C(=O)N[C@H](C(=O)N[C@@H](Cc2ccccc2)[C@@H](O)C[C@H](Cc2ccccc2)NC(=O)OCc2cccnc2)C(C)C)c1` [Example 313, (2S,3S,5S)-2-(N-(N-((N-Methyl-N-((5-methyl-3-pyridinyl)methyl)amino)carbonyl)valinyl)amino)-5-(N-((3-pyridinyl)methoxycarbonyl)amino)-1,6-diphenyl-3-hydroxyhexane] gave an IC50 in the data set on HIV-13B of 460 to 500 nM.

In the data set with HIV-13B, `Cc1cncc(CN(C)C(=O)N[C@H](C(=O)N[C@@H](Cc2ccccc2)C[C@H](O)[C@H](Cc2ccccc2)NC(=O)OCc2cccnc2)C(C)C)c1` [Example 314] came in with an IC50 of 98 to 144 nM.

The molecule `COc1ccc(COC(=O)N[C@H](C(=O)N[C@@H](Cc2ccccc2)C[C@H](O)[C@H](Cc2ccccc2)NC(=O)[C@@H](NC(=O)OCc2ccc(OC)nc2)C(C)C)C(C)C)cn1` [Example 315] gave a concentration for half-maximal inhibition (IC50) in the data set on HIV-13B of 3 to 5 nM. Further, on HIV-1 protease, the inhibition at 0.0005 µM is […].

As for `CC(C)[C@H](NC(=O)OCc1ccccn1)C(=O)N[C@@H](Cc1ccccc1)[C@@H](O)C[C@H](Cc1ccccc1)NC(=O)OCc1cncnc1` [Example 319, (2S,3S,5S)-2-(N-(N-((2-Pyridinyl)methoxycarbonyl)valinyl)amino)-5-(N-((5-pyrimidinyl)methoxycarbonyl)amino)-1,6-diphenyl-3-hydroxyhexane], the IC50 in the data set with HIV-13B was in the range of 210 to 290 nM.

In turn, `CC(C)[C@H](NC(=O)N(C)Cc1ccccn1)C(=O)N[C@@H](Cc1ccccc1)C[C@H](O)[C@H](Cc1ccccc1)NC(=O)OCc1cncnc1` [Example 320, (2S,3S,5S)-5-(N-(N-((N-Methyl-N-((2-pyridinyl)methyl)amino)carbonyl)valinyl)amino)-2-(N-((5-pyrimidinyl)methoxycarbonyl)amino)-1,6-diphenyl-3-hydroxyhexane] showed a 50% inhibitory concentration (IC50) in the data set with HIV-13B of 400 to 500 nM.

In the data set with HIV-13B, `CC(C)[C@H](NC(=O)OCc1ccccn1)C(=O)N[C@@H](Cc1ccccc1)C[C@H](O)[C@H](Cc1ccccc1)NC(=O)OCc1cncnc1` [Example 321, (2S,3S,5S)-5-(N-(N-((2-Pyridinyl)methoxycarbonyl)valinyl)amino)-2-(N-((5-pyrimidinyl)methoxycarbonyl)amino)-1,6-diphenyl-3-hydroxyhexane] registered a 50% inhibitory concentration (IC50) of 140 to 190 nM. For the same molecule, the inhibition at 0.0005 µM at HIV-1 protease worked out at 64%.

For the molecule `Cc1cccc(COC(=O)N[C@H](C(=O)N[C@@H](Cc2ccccc2)[C@@H](O)C[C@H](Cc2ccccc2)NC(=O)OCc2ccoc2)C(C)C)n1` [Example 322B, (2S,3S,5S)-2-(N-(N-(2-(6-Methylpyridinyl)methoxycarbonyl)valinyl)amino)-5-(N-((3-furyl)methoxycarbonyl)amino)-1,6-diphenyl-3-hydroxyhexane], in the data set with HIV-13B, the IC50 fell in the range of 86 to 94 nM.

For `CC(C)[C@H](NC(=O)OCc1ccc2ccccc2n1)C(=O)N[C@@H](Cc1ccccc1)[C@@H](O)C[C@H](Cc1ccccc1)NC(=O)OCc1cccnc1` [Example 326, (2S,3S,5S)-2-(N-(N-((2-Ouinolinyl)methoxycarbonyl)valinyl)amino)-5-(N-((3-pyridinyl)methoxycarbonyl)amino)-1,6-diphenyl-3-hydroxyhexane], in data set [1], the CC50 was 27000 nM. Also, the IC50 with HIV-13B was 53 to 86 nM. Further, on HIV-1 protease, the inhibition at 0.0005 µM turned out to be 66%.

With `CC(C)[C@H](NC(=O)OCc1ccc2ccccc2n1)C(=O)N[C@@H](Cc1ccccc1)C[C@H](O)[C@H](Cc1ccccc1)NC(=O)OCc1cccnc1` [Example 327, (2S,3S,5S)-5-(N-(N-((2-Ouinolinyl)methoxycarbonyl)valinyl)amino)-2-(N-((3-pyridinyl)methoxycarbonyl)amino)-1,6-diphenyl-3-hydroxyhexane], the CC50 in data set [1] stood at 84000 nM. Besides, the IC50 with HIV-13B lay within 34 to 64 nM. In addition, the inhibition at 0.0005 µM at HIV-1 protease came to 69%.
